Laboratory results as given in ChEMBL document CHEMBL2057083, “Development of new carbon-11 labelled radiotracers for imaging GABAA- and GABAB-benzodiazepine receptors” (Bioorg Med Chem, 2012).

Experiments:
Type in all cases: ADME, organism-based
Cerebellum [1] = assay: Biodistribution in Sprague-Dawley rat cerebellum at 37 MBq, iv measured 5 mins post injection; details: in vivo
Cerebellum [2] = assay: Biodistribution in Sprague-Dawley rat cerebellum at 37 MBq, iv measured 15 mins post injection; details: in vivo, 0.25 h
Cerebellum [3] = assay: Biodistribution in Sprague-Dawley rat cerebellum at 37 MBq, iv measured 30 mins post injection; details: in vivo, 0.5 h
Cerebellum [4] = assay: Biodistribution in Sprague-Dawley rat cerebellum at 37 MBq, iv measured 60 mins post injection; details: in vivo, 1 h
Hippocampus [5] = assay: Biodistribution in Sprague-Dawley rat hippocampus at 37 MBq, iv measured 5 mins post injection; details: in vivo
Hippocampus [6] = assay: Biodistribution in Sprague-Dawley rat hippocampus at 37 MBq, iv measured 15 mins post injection; details: in vivo, 0.25 h
Hippocampus [7] = assay: Biodistribution in Sprague-Dawley rat hippocampus at 37 MBq, iv measured 30 mins post injection; details: in vivo, 0.5 h
Hippocampus [8] = assay: Biodistribution in Sprague-Dawley rat hippocampus at 37 MBq, iv measured 60 mins post injection; details: in vivo, 1 h
Striatum [9] = assay: Biodistribution in Sprague-Dawley rat striatum at 37 MBq, iv measured 5 mins post injection; details: in vivo
Striatum [10] = assay: Biodistribution in Sprague-Dawley rat striatum at 37 MBq, iv measured 15 mins post injection; details: in vivo, 0.25 h
Striatum [11] = assay: Biodistribution in Sprague-Dawley rat striatum at 37 MBq, iv measured 30 mins post injection; details: in vivo, 0.5 h
Striatum [12] = assay: Biodistribution in Sprague-Dawley rat striatum at 37 MBq, iv measured 60 mins post injection; details: in vivo, 1 h
Rattus norvegicus [13] = assay: Biodistribution in Sprague-Dawley rat cortex (front) at 37 MBq, iv measured 5 mins post injection; details: in vivo
Rattus norvegicus [14] = assay: Biodistribution in Sprague-Dawley rat cortex (front) at 37 MBq, iv measured 15 mins post injection; details: in vivo, 0.25 h
Rattus norvegicus [15] = assay: Biodistribution in Sprague-Dawley rat cortex (front) at 37 MBq, iv measured 30 mins post injection; details: in vivo, 0.5 h
Rattus norvegicus [16] = assay: Biodistribution in Sprague-Dawley rat cortex (front) at 37 MBq, iv measured 60 mins post injection; details: in vivo, 1 h
Rattus norvegicus [17] = assay: Biodistribution in Sprague-Dawley rat cortex (rest) at 37 MBq, iv measured 5 mins post injection; details: in vivo
Rattus norvegicus [18] = assay: Biodistribution in Sprague-Dawley rat cortex (rest) at 37 MBq, iv measured 15 mins post injection; details: in vivo, 0.25 h
Rattus norvegicus [19] = assay: Biodistribution in Sprague-Dawley rat cortex (rest) at 37 MBq, iv measured 30 mins post injection; details: in vivo, 0.5 h
Rattus norvegicus [20] = assay: Biodistribution in Sprague-Dawley rat cortex (rest) at 37 MBq, iv measured 60 mins post injection; details: in vivo, 1 h
Brain [21] = assay: Biodistribution in Sprague-Dawley rat rest of brain at 37 MBq, iv measured 5 mins post injection; details: in vivo
Brain [22] = assay: Biodistribution in Sprague-Dawley rat rest of brain at 37 MBq, iv measured 15 mins post injection; details: in vivo, 0.25 h
Brain [23] = assay: Biodistribution in Sprague-Dawley rat rest of brain at 37 MBq, iv measured 30 mins post injection; details: in vivo, 0.5 h
Brain [24] = assay: Biodistribution in Sprague-Dawley rat rest of brain at 37 MBq, iv measured 60 mins post injection; details: in vivo, 1 h
Blood [25] = assay: Biodistribution in Sprague-Dawley rat blood at 37 MBq, iv measured 5 mins post injection; details: in vivo
Blood [26] = assay: Biodistribution in Sprague-Dawley rat blood at 37 MBq, iv measured 15 mins post injection; details: in vivo, 0.25 h
Blood [27] = assay: Biodistribution in Sprague-Dawley rat blood at 37 MBq, iv measured 30 mins post injection; details: in vivo, 0.5 h
Blood [28] = assay: Biodistribution in Sprague-Dawley rat blood at 37 MBq, iv measured 60 mins post injection; details: in vivo, 1 h
[29] = Metabolic stability of the compound in Sprague-Dawley rat plasma assessed as compound remaining at 37 MBq, iv measured after 15 mins; details: read-out: Stability
Plasma = assay: Drug metabolism in Sprague-Dawley rat plasma at 37 MBq, iv measured after 5 mins; details: in vivo
[30] = Metabolic stability of the compound in Sprague-Dawley rat brain assessed as compound remaining at 37 MBq, iv measured after 15 mins; details: read-out: Stability
[31] = Biodistribution in Sprague-Dawley rat cerebellum pretreated with unlabeled compound at 0.1 mg/kg, ip administered 30 mins before labeled compound treatment at 37 MBq, iv measured 15 mins post injection (reference value: 0.26 %ID/g); parameters: dose 0.1 mg/kg; details: read-out: Drug uptake
[32] = Biodistribution in Sprague-Dawley rat cerebellum pretreated with unlabeled compound at 5 mg/kg, ip administered 30 mins before labeled compound treatment at 37 MBq, iv measured 15 mins post injection (reference value: 0.26 %ID/g); parameters: dose 5 mg/kg; details: read-out: Drug uptake
[33] = Biodistribution in Sprague-Dawley rat cerebellum pretreated with unlabeled compound at 10 mg/kg, ip administered 30 mins before labeled compound treatment at 37 MBq, iv measured 15 mins post injection (reference value: 0.26 %ID/g); parameters: dose 10 mg/kg; details: read-out: Drug uptake
[34] = Biodistribution in Sprague-Dawley rat hippocampus pretreated with unlabeled compound at 0.1 mg/kg, ip administered 30 mins before labeled compound treatment at 37 MBq, iv measured 15 mins post injection (reference value: 0.22 +/- 0.22 %ID/g); parameters: dose 0.1 mg/kg; details: read-out: Drug uptake
[35] = Biodistribution in Sprague-Dawley rat hippocampus pretreated with unlabeled compound at 5 mg/kg, ip administered 30 mins before labeled compound treatment at 37 MBq, iv measured 15 mins post injection (reference value: 0.22 +/- 0.22 %ID/g); parameters: dose 5 mg/kg; details: read-out: Drug uptake
[36] = Biodistribution in Sprague-Dawley rat hippocampus pretreated with unlabeled compound at 10 mg/kg, ip administered 30 mins before labeled compound treatment at 37 MBq, iv measured 15 mins post injection (reference value: 0.22 +/- 0.22 %ID/g); parameters: dose 10 mg/kg; details: read-out: Drug uptake
Striatum [37] = assay: Biodistribution in Sprague-Dawley rat striatum pretreated with unlabeled compound at 0.1 mg/kg, ip administered 30 mins before labeled compound treatment at 37 MBq, iv measured 15 mins post injection (reference value: 0.13 +/- 0.22 %ID/g); parameters: dose 0.1 mg/kg, route intravenous; details: in vivo, 0.25 h
[38] = Biodistribution in Sprague-Dawley rat striatum pretreated with unlabeled compound at 5 mg/kg, ip administered 30 mins before labeled compound treatment at 37 MBq, iv measured 15 mins post injection (reference value: 0.13 +/- 0.22 %ID/g); parameters: dose 5 mg/kg, route intravenous; details: read-out: Drug uptake
Striatum [39] = assay: Biodistribution in Sprague-Dawley rat striatum pretreated with unlabeled compound at 10 mg/kg, ip administered 30 mins before labeled compound treatment at 37 MBq, iv measured 15 mins post injection (reference value: 0.13 +/- 0.22 %ID/g); parameters: dose 10 mg/kg, route intravenous; details: in vivo, 0.25 h
Rattus norvegicus [40] = assay: Biodistribution in Sprague-Dawley rat cortex (front) pretreated with unlabeled compound at 0.1 mg/kg, ip administered 30 mins before labeled compound treatment at 37 MBq, iv measured 15 mins post infection (reference value: 0.42 +/- 0.04%ID/g); parameters: dose 0.1 mg/kg; details: in vivo, 0.25 h
Rattus norvegicus [41] = assay: Biodistribution in Sprague-Dawley rat cortex (front) pretreated with unlabeled compound at 5 mg/kg, ip administered 30 mins before labeled compound treatment at 37 MBq, iv measured 15 mins post infection (reference value: 0.42 +/- 0.04%ID/g); parameters: dose 5 mg/kg; details: in vivo, 0.25 h
Rattus norvegicus [42] = assay: Biodistribution in Sprague-Dawley rat cortex (front) pretreated with unlabeled compound at 10 mg/kg, ip administered 30 mins before labeled compound treatment at 37 MBq, iv measured 15 mins post infection (reference value: 0.42 +/- 0.04%ID/g); parameters: dose 10 mg/kg; details: in vivo, 0.25 h
[43] = Biodistribution in Sprague-Dawley rat cortex (rest) pretreated with unlabeled compound at 0.1 mg/kg, ip administered 30 mins before labeled compound treatment at 37 MBq, iv measured 15 mins post injection (0.36 +/- 0.02 %ID/g); parameters: dose 0.1 mg/kg; details: read-out: Drug uptake
Rattus norvegicus [44] = assay: Biodistribution in Sprague-Dawley rat cortex (rest) pretreated with unlabeled compound at 5 mg/kg, ip administered 30 mins before labeled compound treatment at 37 MBq, iv measured 15 mins post injection (0.36 +/- 0.02 %ID/g); parameters: dose 5 mg/kg; details: in vivo, 0.25 h
Rattus norvegicus [45] = assay: Biodistribution in Sprague-Dawley rat cortex (rest) pretreated with unlabeled compound at 10 mg/kg, ip administered 30 mins before labeled compound treatment at 37 MBq, iv measured 15 mins post injection (0.36 +/- 0.02 %ID/g); parameters: dose 10 mg/kg; details: in vivo, 0.25 h
[46] = Biodistribution in Sprague-Dawley rat rest of brain pretreated with unlabeled compound at 0.1 mg/kg, ip administered 30 mins before labeled compound treatment at 37 MBq, iv measured 15 mins post injection (0.20 +/- 0.01 %ID/g); parameters: dose 0.1 mg/kg; details: read-out: Drug uptake
Brain [47] = assay: Biodistribution in Sprague-Dawley rat rest of brain pretreated with unlabeled compound at 5 mg/kg, ip administered 30 mins before labeled compound treatment at 37 MBq, iv measured 15 mins post injection (0.20 +/- 0.01 %ID/g); parameters: dose 5 mg/kg, route intravenous; details: in vivo, 0.25 h
Brain [48] = assay: Biodistribution in Sprague-Dawley rat rest of brain pretreated with unlabeled compound at 10 mg/kg, ip administered 30 mins before labeled compound treatment at 37 MBq, iv measured 15 mins post injection (0.20 +/- 0.01 %ID/g); parameters: dose 10 mg/kg; details: in vivo, 0.25 h
Blood [49] = assay: Biodistribution in Sprague-Dawley rat blood pretreated with unlabeled compound at 0.1 mg/kg, ip administered 30 mins before labeled compound treatment at 37 MBq, iv measured 15 mins post injection (0.11 +/- 0.01 %ID/g); parameters: dose 0.1 mg/kg; details: in vivo, 0.25 h
Blood [50] = assay: Biodistribution in Sprague-Dawley rat blood pretreated with unlabeled compound at 5 mg/kg, ip administered 30 mins before labeled compound treatment at 37 MBq, iv measured 15 mins post injection (0.11 +/- 0.01 %ID/g); parameters: dose 5 mg/kg; details: in vivo, 0.25 h
[51] = Biodistribution in Sprague-Dawley rat blood pretreated with unlabeled compound at 10 mg/kg, ip administered 30 mins before labeled compound treatment at 37 MBq, iv measured 15 mins post injection (0.11 +/- 0.01 %ID/g); parameters: dose 10 mg/kg; details: read-out: Drug uptake

[11CH3]Oc1ncccc1-c1cccc2c(N)c3c(nc12)CN(C1CCC1)C3=O
Drug uptake (Cerebellum [1]): 0.36 % ID/g
Drug uptake (Cerebellum [2]): 0.34 % ID/g
Drug uptake (Cerebellum [3]): 0.26 % ID/g
Drug uptake (Cerebellum [4]): 0.13 % ID/g
Drug uptake (Hippocampus [5]): 0.2 % ID/g
Drug uptake (Hippocampus [6]): 0.29 % ID/g
Drug uptake (Hippocampus [7]): 0.24 % ID/g
Drug uptake (Hippocampus [8]): 0.09 % ID/g
Drug uptake (Striatum [9]): 0.26 % ID/g
Drug uptake (Striatum [10]): 0.21 % ID/g
Drug uptake (Striatum [11]): 0.15 % ID/g
Drug uptake (Striatum [12]): 0.06 % ID/g
Drug uptake (Rattus norvegicus [13]): 0.47 % ID/g
Drug uptake (Rattus norvegicus [14]): 0.53 % ID/g
Drug uptake (Rattus norvegicus [15]): 0.44 % ID/g
Drug uptake (Rattus norvegicus [16]): 0.21 % ID/g
Drug uptake (Rattus norvegicus [17]): 0.45 % ID/g
Drug uptake (Rattus norvegicus [18]): 0.46 % ID/g
Drug uptake (Rattus norvegicus [19]): 0.37 % ID/g
Drug uptake (Rattus norvegicus [20]): 0.16 % ID/g
Drug uptake (Brain [21]): 0.25 % ID/g
Drug uptake (Brain [22]): 0.27 % ID/g
Drug uptake (Brain [23]): 0.22 % ID/g
Drug uptake (Brain [24]): 0.11 % ID/g
Drug uptake (Blood [25]): 0.14 % ID/g
Drug uptake (Blood [26]): 0.15 % ID/g
Drug uptake (Blood [27]): 0.11 % ID/g
Drug uptake (Blood [28]): 0.08 % ID/g
remaining at 0.25 h [29]: 71%
Drug metabolism (Plasma): Active
remaining at 0.25 h [30]: > 99%
tissue uptake at 0.25 h [31]: 0.22 %ID/g
tissue uptake at 0.25 h [32]: 0.12 %ID/g
tissue uptake at 0.25 h [33]: 0.09 %ID/g
tissue uptake at 0.25 h [34]: 0.17 %ID/g
tissue uptake at 0.25 h [35]: 0.11 %ID/g
tissue uptake at 0.25 h [36]: 0.08 %ID/g
Drug uptake (Striatum [37]): 0.14 % ID/g
tissue uptake at 0.25 h [38]: 0.1 %ID/g
Drug uptake (Striatum [39]): 0.08 % ID/g
Drug uptake (Rattus norvegicus [40]): 0.36 % ID/g
Drug uptake (Rattus norvegicus [41]): 0.16 % ID/g
Drug uptake (Rattus norvegicus [42]): 0.13 % ID/g
tissue uptake at 0.25 h [43]: 0.27 %ID/g
Drug uptake (Rattus norvegicus [44]): 0.14 % ID/g
Drug uptake (Rattus norvegicus [45]): 0.11 % ID/g
tissue uptake at 0.25 h [46]: 0.16 %ID/g
Drug uptake (Brain [47]): 0.09 % ID/g
Drug uptake (Brain [48]): 0.09 % ID/g
Drug uptake (Blood [49]): 0.11 % ID/g
Drug uptake (Blood [50]): 0.12 % ID/g
tissue uptake at 0.25 h [51]: 0.12 %ID/g
